Measured values published in patent US20050234046A1 (Kalypsys, Inc., priority 2004, published 2005).
pEC50: −log10 of the molar value.

Columns and labels:
Test in all cases: Transient transfection (transactivation) assay in CV-1 cells, GAL4-PPAR chimera, luciferase reporter
Format in all cases: cell-based
PPAR alpha = biological target: T1, PPAR alpha (Homo sapiens, UniProt Q07869)
T1 construct: expressed in transfected cells; host or cells: CV-1 cells
T1 sequence (Q07869 239-466 limits assumed): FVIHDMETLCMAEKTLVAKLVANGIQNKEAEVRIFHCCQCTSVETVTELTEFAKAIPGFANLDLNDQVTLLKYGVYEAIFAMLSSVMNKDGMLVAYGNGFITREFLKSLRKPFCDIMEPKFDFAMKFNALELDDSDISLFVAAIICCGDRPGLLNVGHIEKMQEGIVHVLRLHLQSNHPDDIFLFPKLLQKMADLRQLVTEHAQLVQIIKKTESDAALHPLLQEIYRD
Text: Compounds may be screened for functional potency in transient transfection assays in CV-1 cells or other cell types for their ability to activate the PPAR subtypes (transactivation assay). A previously established chimeric receptor system was utilized to allow comparison of the relative transcriptional activity of the receptor subtypes on the same synthetic response element and to prevent endogenous receptor activation from complicating the interpretation of results. See, for example; Lehmann, J. M.; Moore, L. B.; Smith-Oliver, T. A; Wilkinson, W. O.; Willson, T. M.; Kliewer, S. A., An antidiabetic thiazolidinedione is a high affinity ligand for peroxisome proliferatur-activated receptor γ (PPARγ), J. Biol. Chem., 1995, 270, 12953-6. The ligand binding domains for murine and human PPAR-alpha, PPAR-gamma, and PPAR-delta are each fused to the yeast transcription factor GAL4 DNA binding domain. CV-1 cells were transiently transfected with expression vectors for the respective PPAR chimera along with a reporter construct containing four or five copies of the GAL4 DNA binding site driving expression of luciferase. After 8-16 h, the cells are replated into multi-well assay plates and the media is exchanged to phenol-red free DME medium supplemented with 5% delipidated calf serum. 4 hours after replating, cells were treated with either compounds or 1% DMSO for 20-24 hours. Luciferase activity was then assayed with Britelite (Perkin Elmer) following the manufacturer's protocol and measured with either the Perkin Elmer Viewlux or Molecular Devices Acquest Xsee, for example, Kliewer, S. A., et. al. Cell 1995, 83, 813-819). Rosiglitazone is used as a positive control in the hPPAR-γ assay. Wy-14643 and GW7647 is used as a positive control in the hPPAR-α assay. GW501516 is used as the positive control in the hPPAR-δ assay.
Compounds of Examples 1-233 were assayed to measure their biological activity with respect to their EC50 values and efficacy for modulating PPAR-alpha, PPAR-gamma, and PPAR-delta as set forth in Table 3.

PPAR delta = biological target: T2, PPAR delta (Homo sapiens, UniProt Q03181)
T2 construct: expressed in transfected cells; host or cells: CV-1 cells
T2 sequence (Q03181 211-439 limits assumed): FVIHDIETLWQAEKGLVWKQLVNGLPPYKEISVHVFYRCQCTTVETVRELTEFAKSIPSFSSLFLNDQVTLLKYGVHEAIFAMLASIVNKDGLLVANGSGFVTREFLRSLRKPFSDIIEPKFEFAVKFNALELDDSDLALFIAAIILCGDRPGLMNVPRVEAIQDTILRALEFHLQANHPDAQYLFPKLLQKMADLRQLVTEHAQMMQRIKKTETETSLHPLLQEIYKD

PPAR gamma = biological target: T3, PPAR gamma (Homo sapiens, UniProt P37231)
T3 construct: expressed in transfected cells; host or cells: CV-1 cells
T3 sequence (P37231 238-503 limits assumed): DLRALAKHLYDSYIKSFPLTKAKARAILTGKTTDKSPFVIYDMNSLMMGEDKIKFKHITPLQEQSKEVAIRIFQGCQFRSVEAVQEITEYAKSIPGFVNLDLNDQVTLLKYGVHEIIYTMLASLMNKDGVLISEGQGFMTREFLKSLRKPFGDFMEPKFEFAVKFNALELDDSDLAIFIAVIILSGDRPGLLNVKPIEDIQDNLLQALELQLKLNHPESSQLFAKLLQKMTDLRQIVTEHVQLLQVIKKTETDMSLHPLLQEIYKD

pEC50 (PPAR alpha) | pEC50 (PPAR delta) | pEC50 (PPAR gamma) | PPAR gamma EC50 (PPAR gamma) | Compound
4.00 to 5.30 | > 5.30 | > 5.30 | – | Cc1ccc(S(=O)(=O)N2CCN(c3ccc(C(F)(F)F)cn3)C(C)C2)cc1CC(=O)O (stereo not drawn) [Example 23, [2-Methyl-5-[3-methyl-4-(5-trifluoromethyl-pyridin-2-yl)-piperazine-1-sulfonyl]-phenyl}-acetic acid]
< 4.00 | 4.00 to 5.30 | < 4.00 | – | Cc1ccc(S(=O)(=O)N2[C@H](C)CN(c3nc4ccccc4o3)C[C@@H]2C)cc1CC(=O)O [Example 24, [5-(4-Benzooxazol-2-yl-2,6-dimethyl-piperazine-1-sulfonyl)-2-methyl-phenyl]-acetic acid]
< 4.00 | 4.00 to 5.30 | < 4.00 | – | Cc1ccc(S(=O)(=O)N2[C@H](C)CN(c3nc4ccccc4s3)C[C@@H]2C)cc1CC(=O)O [Example 25, [5-(4-Benzothiazol-2-yl-2,6-dimethyl-piperazine-1-sulfonyl)-2-methyl-phenyl]-acetic acid]
< 4.00 | 4.00 to 5.30 | < 4.00 | – | Cc1ccc(S(=O)(=O)N2CCCN(c3nc4ccccc4o3)CC2)cc1CC(=O)O [Example 26, [5-(4-Benzooxazol-2-yl-[1,4]diazepane-1-sulfonyl)-2-methyl-phenyl]-acetic acid]
< 4.00 | 4.00 to 5.30 | 4.00 to 5.30 | – | Cc1ccc(S(=O)(=O)N2CCCN(c3nc4ccccc4s3)CC2)cc1CC(=O)O [Example 27, [5-(4-Benzothiazol-2-yl-[1,4]diazepane-1-sulfonyl)-2-methyl-phenyl]-acetic acid]
< 4.00 | > 5.30 | < 4.00 | – | Cc1ccc(S(=O)(=O)N2CCN(c3ccc(C#N)cn3)CC2)cc1CC(=O)O [Example 28, {5-[4-(5-Cyano-pyridin-2-yl)-piperazine-1-sulfonyl]-2-methyl-phenyl}-acetic acid]
< 4.00 | > 5.30 | < 4.00 | – | COC(=O)[C@H]1CN(c2ccc(C(F)(F)F)cn2)CCN1S(=O)(=O)c1ccc(C)c(CC(=O)O)c1 [Example 29, (R)-1-(3-Carboxymethyl-4-methyl-benzenesulfonyl)-4-(5-trifluoromethyl-pyridin-2-yl)-piperazine-2-carboxylic acid methyl ester]
4.00 to 5.30 | > 5.30 | 4.00 to 5.30 | – | CCc1ccc(N2CCN(S(=O)(=O)c3ccc(C)c(CC(=O)O)c3)CC2)cc1 [Example 30, {5-[4-(4-Ethyl-phenyl)-piperazine-1-sulfonyl]-2-methyl-phenyl}-acetic acid]
> 5.30 | > 5.30 | 4.00 to 5.30 | – | Cc1ccc(S(=O)(=O)N2CCN(c3ccc(C(C)C)cc3)CC2)cc1CC(=O)O [Example 31]
> 5.30 | 4.00 to 5.30 | 4.00 to 5.30 | – | Cc1ccc(S(=O)(=O)N2CCN(c3ccc(C(C)(C)C)cc3)CC2)cc1CC(=O)O [Example 32, {5-[4-(4-tert-Butyl-phenyl)-piperazine-1-sulfonyl]-2-methyl-phenyl}-acetic acid]
> 5.30 | > 5.30 | > 5.30 | – | Cc1ccc(S(=O)(=O)N2CCN(c3ccc(C(F)(F)F)cc3F)CC2)cc1CC(=O)O [Example 33]
> 5.30 | > 5.30 | – | B/C | Cc1ccc(S(=O)(=O)N2CCN(c3ccc(C(F)(F)F)c(F)c3)CC2)cc1CC(=O)O [Example 34, {5-[4-(3-Fluoro-4-trifluoromethyl-phenyl)-piperazine-1-sulfonyl]-2-methyl-phenyl}-acetic acid]
4.00 to 5.30 | > 5.30 | 4.00 to 5.30 | – | Cc1ccc(S(=O)(=O)N2CCN(c3cc(C(F)(F)F)ccn3)CC2)cc1CC(=O)O [Example 35, {2-Methyl-5-[4-(4-trifluoromethyl-pyridin-2-yl)-piperazine-1-sulfonyl]-phenyl}-acetic acid]
